Results taken from patent US12052991B2, “Substituted pyridinyloxybenzenes and salts thereof and use thereof as herbicidal agents” (Bayer Aktiengesellschaft, priority 2018, dated 2024).

These compounds were tested on Poa annua (POAAN) (assay: Herbicidal post-emergence action (Table B3)). Details: 1280 g/ha; rated visually after about 3 weeks; 100% = plants have died, 0% = like control plants.
Type: in vivo
Protocol: (§1) Seeds of mono- and dicotyledonous weed plants were placed in plastic pots in sandy loam soil (doubly sown with in each case one species of mono- or dicotyledonous weed plants per pot), covered with soil and cultivated in a greenhouse under controlled growth conditions. 2 to 3 weeks after sowing, the test plants were treated at the one-leaf stage. The compounds of the invention, formulated in the form of wettable powders (WP) or as emulsion concentrates (EC), were applied onto the green parts of the plants as aqueous suspension or emulsion with addition of 0.5% additive at a water application rate of 600 liters per hectare (converted). After the test plants had been kept in the greenhouse under optimum growth conditions for about 3 weeks, the activity of the preparations was rated visually in comparison to untreated controls. For example, 100% activity=the plants have died, 0% activity=like control plants. Tables B1 to B12 below show the effects of selected compounds of the general formula (I) according to Table 1 on various harmful plants and an application rate corresponding to 1280 or 320 g/ha, which were obtained by the experimental procedure mentioned above.

Compound	Post-emergence action against Poa annua (POAAN) [%]
N#Cc1ccc(Oc2cccc(F)c2-c2cc(C(F)(F)F)on2)nc1 [Example 1-3]	100

These compounds were tested on Setaria viridis (SETVI) (assay: Herbicidal pre-emergence action, test C (Table C4)). Details: dosage 320 g/ha; visual scoring after about 3 weeks; 100% = plants have died, 0% = like control plants.
Type: in vivo
Text: (§2) Seeds of mono- and dicotyledonous weed plants were placed in plastic pots in sandy loam soil (doubly sown with one species each of mono- or dicotyledonous weed plants per pot) and covered with soil. The compounds of the invention, formulated in the form of wettable powders (WP) or as emulsion concentrates (EC), were then applied onto the surface of the covering soil as aqueous suspension or emulsion with addition of 0.5% additive at a water application rate of 600 liters per hectare (converted). After the treatment, the pots were placed in a greenhouse and kept under good growth conditions for the test plants. After about 3 weeks, the effect of the preparations was scored visually in comparison with untreated controls as percentages. For example, 100% activity=the plants have died, 0% activity=like control plants. Tables C1 to C12 below show the effects of selected compounds of the general formula (I) according to Table 1 on various harmful plants and an application rate corresponding to 1280 or 320 g/ha, which were obtained by the experimental procedure mentioned above.

Compound	Pre-emergence action against Setaria viridis (SETVI) [%]
N#Cc1ccc(Oc2cccc(F)c2-c2cc(C(F)(F)F)on2)nc1 [Example 1-3]	100

Same assay, conditions: dosage 1280 g/ha; visual scoring after about 3 weeks; 100% = plants have died, 0% = like control plants

Compound	Pre-emergence action against Setaria viridis (SETVI) [%]
Cc1ccc(-c2cc(C(F)F)no2)c(Oc2ncccc2F)c1 [Example 1-33]	100
N#Cc1ccc(Oc2cccc(F)c2-c2cc(C(F)(F)F)on2)nc1 [Example 1-3]	100

What follows are compounds tested on Amaranthus retroflexus (AMARE) (assay: Herbicidal post-emergence action (Table B6)). Details: dosage 320 g/ha; visual rating about 3 weeks after treatment; 100% = plants have died, 0% = like control plants.
Type: in vivo
Protocol: as §1

Compound	Post-emergence action against Amaranthus retroflexus (AMARE) [%]
Cn1nc(-c2cc(F)ccc2Oc2ccc(Cl)cn2)cc1C(F)F [Example 1-65]	100
N#Cc1ccc(Oc2cccc(F)c2-c2cc(C(F)(F)F)on2)nc1 [Example 1-3]	100

Same assay, conditions: dosage 1280 g/ha; visual rating about 3 weeks after treatment; 100% = plants have died, 0% = like control plants

Compound	Post-emergence action against Amaranthus retroflexus (AMARE) [%]
Cn1nc(-c2cc(F)ccc2Oc2ccc(Cl)cn2)cc1C(F)F [Example 1-65]	100
N#Cc1ccc(Oc2cccc(F)c2-c2cc(C(F)(F)F)on2)nc1 [Example 1-3]	100

The compounds below were run on Stellaria media (STEME) (assay: Herbicidal pre-emergence action, test C (Table C8)). Details: dosage 320 g/ha; visual scoring after about 3 weeks; 100% = plants have died, 0% = like control plants.
Type: in vivo
Text: as §2

Compound	Pre-emergence action against Stellaria media (STEME) [%]
Cc1ccc(-c2cc(C(F)F)no2)c(Oc2ncccc2F)c1 [Example 1-33]	90
N#Cc1ccc(Oc2cccc(F)c2-c2cc(C(F)(F)F)on2)nc1 [Example 1-3]	90

Same assay, conditions: dosage 1280 g/ha; visual scoring after about 3 weeks; 100% = plants have died, 0% = like control plants

Compound	Pre-emergence action against Stellaria media (STEME) [%]
Cc1ccc(-c2cc(C(F)F)no2)c(Oc2ncccc2F)c1 [Example 1-33]	100
N#Cc1ccc(Oc2cccc(F)c2-c2cc(C(F)(F)F)on2)nc1 [Example 1-3]	100

The compounds below were run on Matricaria inodora (MATIN) (assay: Herbicidal pre-emergence action, test C (Table C7)). Details: dosage 1280 g/ha; visual scoring after about 3 weeks; 100% = plants have died, 0% = like control plants.
Type: in vivo
Text: as §2

Compound	Pre-emergence action against Matricaria inodora (MATIN) [%]
N#Cc1ccc(Oc2cccc(F)c2-c2cc(C(F)(F)F)on2)nc1 [Example 1-3]	90

The compounds below were run on harmful plants ABUTH, AMARE, ECHCG, LOLRI, MATIN, POAAN, SETVI, STEME, ALOMY, DIGSA, KCHSC and VERPE (assay: Herbicidal pre-emergence action (test C), summary of Tables C1-C12). Details: application rate of 1280 or 320 g of active ingredient per hectare; summary in words.
Type: in vivo
Text: as §2, with “percentages.” for “percentages. For example, 100% activity=the plants have died, 0% activity=like control plants. Tables C1 to C12 below show the effects of selected compounds of the general formula (I) according to Table 1 on various harmful plants and an application rate corresponding to 1280 or 320 g/ha, which were obtained by the experimental procedure mentioned above.”
(§3) For example, 100% activity=the plants have died, 0% activity=like control plants.
Tables C1 to C12 below show the effects of selected compounds of the general formula (I) according to Table 1 on various harmful plants and an application rate corresponding to 1280 or 320 g/ha, which were obtained by the experimental procedure mentioned above.
As the results of Tables C1-C12 show, compounds no.

Compound	herbicidal activity against the harmful plants of Tables C1-C12 in pre-emergence treatment
Cn1nc(-c2cc(F)ccc2Oc2ccc(Cl)cn2)cc1C(F)F [Example 1-65]	very good herbicidal activity
Cc1ccc(-c2cc(C(F)F)no2)c(Oc2ncccc2F)c1 [Example 1-33]	very good herbicidal activity
Fc1cccc(Oc2ncc(Cl)cc2Cl)c1-c1cc(C(F)(F)F)on1 [Example 1-4]	very good herbicidal activity
N#Cc1ccc(Oc2cccc(F)c2-c2cc(C(F)(F)F)on2)nc1 [Example 1-3]	very good herbicidal activity

What follows are compounds tested on Veronica persica (VERPE) (assay: Herbicidal post-emergence action (Table B12)). Details: dosage 320 g/ha; visual rating about 3 weeks after treatment; 100% = plants have died, 0% = like control plants.
Type: in vivo
Protocol: as §1

Compound	Post-emergence action against Veronica persica (VERPE) [%]
Cn1nc(-c2cc(F)ccc2Oc2ccc(Cl)cn2)cc1C(F)F [Example 1-65]	100
Cc1ccc(-c2cc(C(F)F)no2)c(Oc2ncccc2F)c1 [Example 1-33]	90

Same assay, conditions: dosage 1280 g/ha; visual rating about 3 weeks after treatment; 100% = plants have died, 0% = like control plants

Compound	Post-emergence action against Veronica persica (VERPE) [%]
Cn1nc(-c2cc(F)ccc2Oc2ccc(Cl)cn2)cc1C(F)F [Example 1-65]	100
Cc1ccc(-c2cc(C(F)F)no2)c(Oc2ncccc2F)c1 [Example 1-33]	100

What follows are compounds tested on harmful plants ABUTH, AMARE, ECHCG, LOLRI, MATIN, POAAN, SETVI, STEME, ALOMY, DIGSA, KCHSC and VERPE (assay: Herbicidal post-emergence action, summary of Tables B1-B12). Details: application rate of 1280 or 320 g of active ingredient per hectare; summary in words.
Type: in vivo
Protocol: as §1, with “controls.” for “controls. For example, 100% activity=the plants have died, 0% activity=like control plants. Tables B1 to B12 below show the effects of selected compounds of the general formula (I) according to Table 1 on various harmful plants and an application rate corresponding to 1280 or 320 g/ha, which were obtained by the experimental procedure mentioned above.”
as §3
Tables B1 to B12 below show the effects of selected compounds of the general formula (I) according to Table 1 on various harmful plants and an application rate corresponding to 1280 or 320 g/ha, which were obtained by the experimental procedure mentioned above.
As the results of Tables B1-B12 show, compounds no.

Compound	herbicidal activity against the harmful plants of Tables B1-B12 in post-emergence treatment
Cn1nc(-c2cc(F)ccc2Oc2ccc(Cl)cn2)cc1C(F)F [Example 1-65]	very good herbicidal activity
Cc1ccc(-c2cc(C(F)F)no2)c(Oc2ncccc2F)c1 [Example 1-33]	very good herbicidal activity
Fc1cccc(Oc2ncc(Cl)cc2Cl)c1-c1cc(C(F)(F)F)on1 [Example 1-4]	very good herbicidal activity
N#Cc1ccc(Oc2cccc(F)c2-c2cc(C(F)(F)F)on2)nc1 [Example 1-3]	very good herbicidal activity

What follows are compounds tested on Abutilon theophrasti (ABUTH) (assay: Herbicidal pre-emergence action, test C (Table C5)). Details: dosage 320 g/ha; visual scoring after about 3 weeks; 100% = plants have died, 0% = like control plants.
Type: in vivo
Text: as §2

Compound	Pre-emergence action against Abutilon theophrasti (ABUTH) [%]
N#Cc1ccc(Oc2cccc(F)c2-c2cc(C(F)(F)F)on2)nc1 [Example 1-3]	90

Same assay, conditions: dosage 1280 g/ha; visual scoring after about 3 weeks; 100% = plants have died, 0% = like control plants

Compound	Pre-emergence action against Abutilon theophrasti (ABUTH) [%]
Cc1ccc(-c2cc(C(F)F)no2)c(Oc2ncccc2F)c1 [Example 1-33]	90
N#Cc1ccc(Oc2cccc(F)c2-c2cc(C(F)(F)F)on2)nc1 [Example 1-3]	100

The compounds below were run on Veronica persica (VERPE) (assay: Herbicidal pre-emergence action, test C (Table C12)). Details: dosage 1280 g/ha, visual scoring vs untreated controls.
Type: in vivo
Text: as §2

Compound	Pre-emergence action against Veronica persica (VERPE) [%]
Cc1ccc(-c2cc(C(F)F)no2)c(Oc2ncccc2F)c1 [Example 1-33]	90

The compounds below were run on Poa annua (POAAN) (assay: Herbicidal pre-emergence action, test C (Table C3)). Details: dosage 1280 g/ha; visual scoring after about 3 weeks; 100% = plants have died, 0% = like control plants.
Type: in vivo
Text: as §2

Compound	Pre-emergence action against Poa annua (POAAN) [%]
Cn1nc(-c2cc(F)ccc2Oc2ccc(Cl)cn2)cc1C(F)F [Example 1-65]	100
Cc1ccc(-c2cc(C(F)F)no2)c(Oc2ncccc2F)c1 [Example 1-33]	90
N#Cc1ccc(Oc2cccc(F)c2-c2cc(C(F)(F)F)on2)nc1 [Example 1-3]	90

What follows are compounds tested on Stellaria media (STEME) (assay: Herbicidal post-emergence action (Table B8)). Details: dosage 1280 g/ha; visual rating about 3 weeks after treatment; 100% = plants have died, 0% = like control plants.
Type: in vivo
Protocol: as §1

Compound	Post-emergence action against Stellaria media (STEME) [%]
Fc1cccc(Oc2ncc(Cl)cc2Cl)c1-c1cc(C(F)(F)F)on1 [Example 1-4]	100
N#Cc1ccc(Oc2cccc(F)c2-c2cc(C(F)(F)F)on2)nc1 [Example 1-3]	90

These compounds were tested on Amaranthus retroflexus (AMARE) (assay: Herbicidal pre-emergence action, test C (Table C6)). Details: dosage 320 g/ha; visual scoring after about 3 weeks; 100% = plants have died, 0% = like control plants.
Type: in vivo
Text: as §2

Compound	Pre-emergence action against Amaranthus retroflexus (AMARE) [%]
Cn1nc(-c2cc(F)ccc2Oc2ccc(Cl)cn2)cc1C(F)F [Example 1-65]	90
N#Cc1ccc(Oc2cccc(F)c2-c2cc(C(F)(F)F)on2)nc1 [Example 1-3]	100

Same assay, conditions: dosage 1280 g/ha; visual scoring after about 3 weeks; 100% = plants have died, 0% = like control plants

Compound	Pre-emergence action against Amaranthus retroflexus (AMARE) [%]
Cn1nc(-c2cc(F)ccc2Oc2ccc(Cl)cn2)cc1C(F)F [Example 1-65]	100
Fc1cccc(Oc2ncc(Cl)cc2Cl)c1-c1cc(C(F)(F)F)on1 [Example 1-4]	90
N#Cc1ccc(Oc2cccc(F)c2-c2cc(C(F)(F)F)on2)nc1 [Example 1-3]	100
